In patent publication US7858349B2, “Anti-cancer compounds” (The Regents of the University of Colorado, priority 1999, dated 2010):

system: SCLC strain SHP-77; assay: MTT assay for cell survival, SCLC SHP-77 in vitro; type: cell-based, human; details: ED50 for killing of SCLC strain SHP-77 in vitro, 4 days, 0 = no detectable activity, read-out: SCLC SHP-77 IC50

Row | Structure (SMILES) | IC50
1 | O=C(N[C@H]1CN2CCC1CC2)C(Cc1ccc(OCc2c(Cl)cccc2Cl)cc1)NC(=O)C(c1ccccc1)C1CCCCC1 (single isomer, unassigned) [M-1548 #1] | 4 µM
2 | O=C(N[C@H]1CN2CCC1CC2)C(Cc1ccc(OCc2c(Cl)cccc2Cl)cc1)NC(=O)C(c1ccccc1)C1CCCCC1 (single isomer, unassigned) [M-1548 #2] | 13 µM
3 | CC1(C)CC(NC(=O)C(NC(=O)c2ccccn2)C2Cc3ccccc3C2)CC(C)(C)N1 (stereo not drawn) [Analog M-1354, Pic-Igl-Atmp] | > 60 µM
4 | CC1(C)CC(NC(=O)C(NC(=O)c2ccc(B(O)O)cc2)C2Cc3ccccc3C2)CC(C)(C)N1 (stereo not drawn) [Analog M-1374, Bbz-Igl-Atmp] | > 60 µM
5 | COC(=O)CN1C(C)CN(C(=O)C(Cc2ccc(F)cc2)NC(=O)C=Cc2c(F)c(F)c(F)c(F)c2F)CC1C (centres unmarked) [Analog M-1432, F5c-PFF-Dmmp] | 18 µM
6 | CC1(C)CC(NC(=O)C(Cc2ccc(OCc3c(Cl)cccc3Cl)cc2)NC(=O)CCCCC2SCC3NC(=O)NC32)CC(C)(C)N1 (centres unmarked) [Analog M-1436, Biot-OC2Y-Atmp] | > 60 µM
7 | CC1(C)CC(NC(=O)C(Cc2ccc(C#N)cc2)NC(=O)CCCc2c[nH]c3ccccc23)CC(C)(C)N1 (centres unmarked) [Analog M-1476, 3Ibu-PCNF-Atmp] | > 60 µM
8 | CCCCCCC(O)CC=CCCCCCCCC(=O)NC(Cc1ccc(C#N)cc1)C(=O)NC1CC(C)(C)NC(C)(C)C1 (centres unmarked) [Analog M-1478, Rio-PCNF-Atmp] | 14 µM
9 | CC1(C)CC(NC(=O)C(Cc2ccc(C#N)cc2)NC(=O)COc2c(F)c(F)c(F)c(F)c2F)CC(C)(C)N1 (centres unmarked) [Analog M-1488, F5po-PCNF-Atmp] | > 60 µM
10 | CC1(C)CC(NC(=O)C(Cc2ccc(C#N)cc2)NC(=O)c2c(F)c(F)c(F)c(F)c2F)CC(C)(C)N1 (centres unmarked) [Analog M-1490, F5bz-PCNF-Atmp] | > 60 µM
11 | CC1(C)CC(NC(=O)[C@H](Cc2ccc(C#N)cc2)NC(=O)CCCc2ccc(N(CCCl)CCCl)cc2)CC(C)(C)N1 [Analog M-1500, Chl-PCNF-Atmp] | 25 µM
12 | CC1(C)CC(NC(=O)C(Cc2ccc(C#N)cc2)NC(=O)C=Cc2cc(F)cc(F)c2F)CC(C)(C)N1 (centres unmarked) [Analog M-1504, F3c-PCNF-Atmp] | > 60 µM
13 | Cc1ccc(CSC(C)(C)C(NC(=O)C(C2CCCCC2)C2CCCCC2)C(=O)NC2CC(C)(C)NC(C)(C)C2)cc1 (centres unmarked) [Analog M-1514, Dca-Pen(Mbzl)-Atmp] | 7.3 µM
14 | CC1(C)CC(NC(=O)[C@H](Cc2ccc(C#N)cc2)NC(=O)C(C2CCCCC2)C2CCCCC2)CC(C)(C)N1 [Analog M-1516, Dca-PCNF-Atmp] | 11 µM
15 | CC1(C)CC(NC(=O)[C@H](Cc2ccc(C#N)cc2)NC(=O)c2cnccn2)CC(C)(C)N1 [Analog M-1524, 2Pyz-PCNF-Atmp] | > 60 µM

same assay, conditions: ED50 for killing of SCLC strain SHP-77 in vitro, 4 days, 0 = no detectable activity, read-out: SHP-77 In vitro IC50

Row | Structure (SMILES) | IC50
16 | CC1(C)CC(NC(=O)C(Cc2ccc(OP(=O)(O)OCc3ccccc3)cc2)NC(=O)C=Cc2c(F)c(F)c(F)c(F)c2F)CC(C)(C)N1 (centres unmarked) [Analog M-1080, F5c-OBPY-Atmp] | > 60 µM
17 | CC1(C)CC(NC(=O)C(Cc2c[nH]c3ccccc23)NC(=O)C(N)CCC(=O)O)CC(C)(C)N1 (stereo not drawn) [Analog M-1120, Glu-Trp-Atmp] | > 60 µM
18 | CC1(C)CC(NC(=O)C(Cc2ccc(F)cc2)NC(=O)C=Cc2c(F)c(F)c(F)c(F)c2F)CC(C)(C)N1 (centres unmarked) [Analog M-1140, F5c-PFF-Atmp] | 15 µM
19 | CC1(C)CC(NC(=O)C(Cc2ccc(I)cc2)NC(=O)C=Cc2c(F)c(F)c(F)c(F)c2F)CC(C)(C)N1 (centres unmarked) [Analog M-1142, F5c-PIF-Atmp] | 7.2 µM
20 | CC1(C)CC(NC(=O)C(Cc2ccc(C(F)(F)F)cc2)NC(=O)C=Cc2c(F)c(F)c(F)c(F)c2F)CC(C)(C)N1 (centres unmarked) [Analog M-1146, F5c-F3MF-Atmp] | 12 µM
21 | CN(C(=O)C=Cc1c(F)c(F)c(F)c(F)c1F)C(Cc1ccccc1)C(=O)NC1CC(C)(C)NC(C)(C)C1 (centres unmarked) [Analog M-1148, F5c-NMF-Atmp] | 15.5 µM
22 | CC1(C)CC(NC(=O)C(NC(=O)C=Cc2c(F)c(F)c(F)c(F)c2F)C(c2ccccc2)c2ccccc2)CC(C)(C)N1 (centres unmarked) [Analog M-1150, F5c-Dip-Atmp] | 5 µM
23 | CC1(C)CC(NC(=O)C(Cc2ccc(F)cc2)NC(=O)C=Cc2ccoc2)CC(C)(C)N1 (centres unmarked) [Analog M-1152, 3-Fa-PFF-Atmp] | > 60 µM
24 | CN1CCN(C(=O)C(Cc2ccc(F)cc2)NC(=O)C=Cc2c(F)c(F)c(F)c(F)c2F)CC1 (centres unmarked) [Analog M-1158, F5c-PFF-Mpz] | 28 µM
25 | CC1CN(C(=O)C(Cc2ccc(F)cc2)NC(=O)C=Cc2c(F)c(F)c(F)c(F)c2F)CC(C)N1 (centres unmarked) [Analog M-1160, F5c-PFF-Dmpz] | 24 µM
26 | O=C(C=Cc1c(F)c(F)c(F)c(F)c1F)NC(Cc1ccc(F)cc1)C(=O)N1CCN(c2ncccn2)CC1 (centres unmarked) [Analog M-1162, F5c-PFF-Pmpz] | 15 µM
27 | O=C(C=Cc1c(F)c(F)c(F)c(F)c1F)NC(Cc1ccc(F)cc1)C(=O)N1CCN(c2ccccn2)CC1 (centres unmarked) [Analog M-1164, F5c-PFF-Pypz] | 14 µM
28 | CC1(C)CC(NC(=O)C(CCc2ccccc2)NC(=O)C=Cc2c(F)c(F)c(F)c(F)c2F)CC(C)(C)N1 (centres unmarked) [Analog M-1176, F5c-hPhe-Atmp] | 14 µM
29 | CC1(C)CC(NC(=O)C(Cc2ccccc2)NC(=O)C=Cc2c(F)c(F)c(F)c(F)c2F)CC(C)(C)N1 (centres unmarked) [Analog M-1178, F5c-Phe-Atmp] | 15 µM
30 | O=C(C=Cc1c(F)c(F)c(F)c(F)c1F)NC(Cc1c(F)c(F)c(F)c(F)c1F)C(=O)NC1CCN(Cc2ccccc2)CC1 (centres unmarked) [Analog M-1182, F5c-F5F-Abzp] | 19.5 µM
31 | CC1CN(C(=O)C(Cc2c(F)c(F)c(F)c(F)c2F)NC(=O)C=Cc2c(F)c(F)c(F)c(F)c2F)CC(C)N1 (centres unmarked) [Analog M-1186, F5c-F5F-Dmpz] | 11 µM
32 | O=C(C=Cc1c(F)c(F)c(F)c(F)c1F)NC(Cc1ccc(F)cc1)C(=O)N1CCN(C(c2ccccc2)c2ccc(Cl)cc2)CC1 (centres unmarked) [Analog M-1202, F5c-PFF-Cbp] | 30 µM
33 | O=C(C=Cc1cccnc1)NC(Cc1ccc2ccccc2c1)C(=O)N1CCN(C(c2ccccc2)c2ccc(Cl)cc2)CC1 (stereo not drawn) [Analog M-1204, Pya-Nal-Cbp] | 7.5 µM
34 | O=C(C=Cc1c(F)c(F)c(F)c(F)c1F)NC(Cc1ccc(F)cc1)C(=O)N1CCN(c2ccc(Cl)cc2)CC1 (centres unmarked) [Analog M-1208, F5c-PFF-Cpp] | 30 µM
35 | O=C(C=Cc1cccnc1)NC(Cc1ccc(F)cc1)C(=O)N1CCN(c2ccc(Cl)cc2)CC1 (centres unmarked) [Analog M-1212, Pya-PFF-Cpp] | 10 µM
36 | O=C(C=Cc1c(F)c(F)c(F)c(F)c1F)NC1(C(=O)N(Cc2ccccn2)Cc2ccccn2)Cc2ccccc2C1 [Analog M-1218, F5c-Aic-Dpic] | 14 µM
37 | O=C(C=Cc1c(F)c(F)c(F)c(F)c1F)NC(Cc1ccc(I)cc1)C(=O)N1CCN(c2ccccn2)CC1 (centres unmarked) [Analog M-1248, F5c-PIF-Pypz] | 13 µM
38 | O=C(C=Cc1c(F)c(F)c(F)c(F)c1F)NC(Cc1ccc2ccccc2c1)C(=O)N1CCC(N2CCCCC2)CC1 (centres unmarked) [Analog M-1250, F5c-Nal-Pipp] | 7.6 µM
39 | O=C(C=Cc1cc(C(F)(F)F)cc(C(F)(F)F)c1)NC(Cc1ccc(I)cc1)C(=O)N1CCN(c2ccccn2)CC1 (centres unmarked) [Analog M-1252, Tf2c-PIF-Pypz] | > 60 µM
40 | CC1CN(C(=O)C(Cc2ccc(I)cc2)NC(=O)C=Cc2c(F)c(F)c(F)c(F)c2F)CC(C)N1 (centres unmarked) [Analog M-1254, F5c-PIF-Dmpz] | 10 µM
41 | O=C(C=Cc1c(F)c(F)c(F)c(F)c1F)NC(Cc1ccc(I)cc1)C(=O)N(Cc1ccccn1)Cc1ccccn1 (centres unmarked) [Analog M-1256, F5c-PIF-Dpic] | 13 µM
